The results in this text go back to ChEMBL document CHEMBL1129064, “Design and synthesis of 2',3'-dideoxy-2',3'-didehydro-beta-L-cytidine (beta-L-d4C) and 2',3'-dideoxy 2',3'-didehydro-beta-L-5-fluorocytidine (beta-L-Fd4C), two exceptionally potent inhibitors of human hepatitis B virus (HBV) and potent inhibitors of human immunodeficiency virus (HIV) in vitro” (1996).

Holding throughout (assay type): functional
Common to all, as to settings: Homo sapiens, read-out: ED50 (the source's name)

Experiment [1] has as its system MT2. Description: Concentration required to inhibit 50% of HIV activity in MT-2 cells.
In experiment [2] the test system is CCRF-CEM. Description: In vitro concentration required to decrease 50% of mitochondrial DNA content in CEM cells.
Experiment [3] deals with HepG2. Put plainly: Concentration required to inhibit 50% of extracellular circular replication of HBV DNA using 2215 cell line.
Experiment [4] concerns CCRF-CEM. Put plainly: In vitro concentration required to inhibit 50% of CEM cell growth.
The test system of experiment [5] is HepG2. Put plainly: Concentration required to inhibit 50% of intracellular circular replication of HBV DNA using 2215 cell line.

pEC50: −log10 of the molar value.

In the case of `Nc1ccn([C@H]2C=C[C@@H](CO)O2)c(=O)n1`, the pEC50 was 6.00 in experiment [1]; below 4.70 in experiment [2]; 8.00 in experiment [3]; 4.70 in experiment [4]; 8.10 in experiment [5].
For the molecule `Nc1ccn([C@@H]2CC[C@H](CO)O2)c(=O)n1`, the pEC50 was 5.82 in experiment [1]; 7.66 in experiment [2]; 5.28 in experiment [3]; 5.00 in experiment [4]; 5.21 in experiment [5].
`Nc1ccn([C@@H]2C=C[C@H](CO)O2)c(=O)n1`: the pEC50 in experiment [1] was 6.15; in experiment [2] it was 5.70; in experiment [3], 5.52; in experiment [4], 4.66.
In the case of `Nc1nc(=O)n([C@@H]2CC[C@H](CO)O2)cc1F`, the pEC50 is 6.30 in experiment [1]; below 4.00 in experiment [2]; 7.26 in experiment [3]; 4.17 in experiment [4]; 7.44 in experiment [5].
For `Nc1nc(=O)n([C@@H]2C=C[C@H](CO)O2)cc1F` [ELVUCITABINE], the pEC50 is 7.05 in experiment [1]; below 4.00 in experiment [2]; 8.70 in experiment [3]; 5.15 in experiment [4]; 8.70 in experiment [5].
Consider `Nc1nc(=O)n([C@@H]2CS[C@H](CO)O2)cc1F` [EMTRICITABINE], for which the pEC50 in experiment [1] was 5.70; in experiment [2], below 4.30; in experiment [3] it was 7.77; in experiment [4] it was 4.30; in experiment [5], 7.52.
